Measured values taken from the SangsterLogP compilation.

Experiments:
[1] = method code SF-RC, from DOI: 10.1016/j.nucmedbio.2008.01.001, PMID: 18355684; details: pH 7.4
[2] = method code SF-HPLC, from DOI: 10.3109/03639045.2012.690417, PMID: 22670797
[3] = method code SF-GLC, from DOI: 10.1016/s0380-1330(82)71969-0
[4] = method code SF-RC, from DOI: 10.1021/jm00360a016, PMID: 6854590
[5] = method code SF, from DOI: 10.1021/jf60167a006
[6] = not given; remark: listed apart in the source
[7] = method code …, from Kristl, A.; Vesnaver, G.; Mrhar, A.; Kozjek, F. (1993). Evaluation of partitioning and solubility data for some guanine derivatives in terms of mutual miscibility of octanol and water phase. …; details: pH 5.2
[8] = method code SF-AS, from DOI: 10.1016/s0090-9556(25)07961-9, PMID: 6130927
[9] = not given; remark: listed apart in the source
[10] = method code SF-HPLC, from DOI: 10.1021/jm00109a018, PMID: 2033591; details: pH 7.0
[11] = not given; remark: listed apart in the source
[12] = from Tehrany, E.A.; Desobry, S. (2005). Comparison between the different calculation methods of partition coefficient of aroma compounds with a difference chemical classes in octanol/water system. …
[13] = method code SF-HPLC, from DOI: 10.1124/dmd.30.12.1497, PMID: 12433825; details: pH 7.4
[14] = method code SF-AS, from DOI: 10.1016/0006-2952(80)90068-4, PMID: 6775639
[15] = method code SF, from DOI: 10.1016/0304-4165(80)90351-7, PMID: 6243999; details: pH 7.4
[16] = method code SF, from PMID: 7412765; details: pH 7.0
[17] = method code SF-HPLC, from DOI: 10.1002/hlca.19880710534; details: pH 7.4
[18] = method code SF-AS, from DOI: 10.1021/jf60167a006
[19] = not given; remark: listed apart in the source
[20] = method code SF, from DOI: 10.1248/cpb.18.708; details: pH 6.4
[21] = not given; remark: listed apart in the source
[22] = method code SF-HPLC, from DOI: 10.1002/jps.22717, PMID: 21837649; details: pH 7.4
[23] = method code G-GLC, from DOI: 10.1021/es00171a006
[24] = not given; remark: listed apart in the source
[25] = method code SF, from PMID: 23342302; details: pH 7.4
[26] = not given; remark: listed apart in the source
[27] = method code SF, from PMID: 3261785
[28] = not given; remark: listed apart in the source
[29] = method code SF-AS, from DOI: 10.1211/0022357001773940, PMID: 10757413; details: pH 7.4
[30] = method code SF-RC, from DOI: 10.1016/j.nucmedbio.2014.03.023, PMID: 24768149; details: pH 7.4
[31] = method code SF-AS, from Korenman, Y. (1973). Extraction of p-halophenols. Zh. Prikl. Khim., 46(11)2754-2755.; details: pH 7.4
[32] = method code SF-AS, from PMID: 7646571; details: pH 7.0
[33] = method code SF-AS, from DOI: 10.2307/3575639, PMID: 7313077; details: pH 7.4
[34] = not given; remark: listed apart in the source
[35] = method code SF-GLC, from DOI: 10.1016/0045-6535(95)00311-u
[36] = not given; remark: listed apart in the source
[37] = method code SF-GLC, from Hashimoto, S.; Schneider, S.; Yamamoto, T.; Morita, M. (1994). Aqueous solubility and octanol-water partition coefficient of 3,3',4,4'-tetrachloroazobenzene. 20, 125-128.
[38] = not given; remark: listed apart in the source
[39] = not given; remark: listed apart in the source
[40] = method code SF-AS, from DOI: 10.1021/jf950378u
[41] = not given; remark: listed apart in the source
[42] = method code SF-AS, from PMID: 3774812; details: pH 4.0
[43] = from Gehmann, K., Nyfeler, R., Leadbeater, A. J., Nevill, D. J., & Sozzi, D. (1990). CGA 173506: A new phenylpyrrole fungicide for broad-spectrum disease control. In Brighton Crop Protection Conference, …
[44] = method code SF-GLC, from DOI: 10.1007/s002679900238, PMID: 10486045
[45] = method code SF-AS, from DOI: 10.1016/j.bmc.2011.10.017, PMID: 22094277; details: pH 7.4
[46] = method code SF, from PMID: 7429676; details: pH 7.4
[47] = not given; remark: listed apart in the source
[48] = not given; remark: listed apart in the source
[49] = not given; remark: listed apart in the source
[50] = method code SF-AS, from DOI: 10.1021/jf60217a021, PMID: 659709

`CCCSc1nsnc1C1=CCCN(C)C1` gave a logD [1] of 2.9.
With `CC(C)(C)c1ccc(NC(N)=S)cc1` the logP [2] was 2.6.
`Clc1cc(-c2ccccc2)c(Cl)c(Cl)c1Cl` showed a logP [3] of 5.9.
Work on `CCNc1nc(NC(C)(C)C)nc(SC)n1` yielded a logP of 3.43.
Work on `O=c1ccc2ccc3occc3c2o1` yielded a logP [4] of 2.08.
With `CCOP(=O)(OCC)Oc1ccc(S(C)(=O)=O)cc1` the logP [5] was 0.
For `CCCCc1ccc(C(=O)O)cc1`, the logP [6] was 3.7.
Compound `CC(=O)Nc1nc2c(ncn2COCCO)c(=O)[nH]1` has a logD [7] of -1.3.
Compound `CCC(N)Cc1ccccc1` (stereo unspecified) has a logP [8] of 2.28.
`Clc1cc(Cl)c(-c2cc(Cl)c(Cl)cc2Cl)cc1Cl` showed a logP [9] of 6.67.
With `Cc1nc2c(N)ncnc2n1[C@@H]1O[C@H](CO)C[C@@H]1F` the logD [10] was 0.1.
For `CCC1(CC(C)C)C(=O)NC(=O)NC1=O`, the logP [11] was 1.69.
Work on `CCCCCCCCCC(=O)O` yielded a logP [12] of 3.91.
Compound `CN1C(=O)CC(c2ccccc2)C1=O` (stereo unspecified) has a logD [13] of 0.68.
With `CC1=CC(=O)c2ccccc2C1=O` the logP [14] was 1.88.
In the case of `CC(=O)NC1CC(C)(C)N(O)C(C)(C)C1`, the logD [15] is reported as 0.52.
Compound `CCCC(C)C1(CC)C(=O)NC(=O)NC1=O` (stereo unspecified) has a logD [16] of 1.75.
Work on `C=CCC1(C(=O)NC(N)=O)CC(C)OC1=O` (stereo unspecified) yielded a logD [17] of 0.36.
In the case of `CCOP(=S)(OCC)Oc1ccccc1`, the logP [18] is reported as 3.46.
In the case of `NC12CC3CC(CC(C3)C1)C2`, the logP [19] is reported as 2.54.
Work on `COc1ccc(NS(=O)(=O)c2ccc(N)cc2)nn1` yielded a logD [20] of 0.4.
Compound `c1nnnn1C12CC3CC(CC(C3)C1)C2` has a logP [21] of 2.95.
For `CCN1CCCc2cc(F)ccc21`, the logD [22] was 2.82.
Compound `Clc1c(Cl)c(Cl)c2c(oc3c(Cl)c(Cl)c(Cl)c(Cl)c32)c1Cl` has a logP [23] of 7.59.
With `CNC(=O)OCc1nc(SC)n(C)c1COC(=O)NC` the logP [24] was 0.74.
With `Nc1nc(=O)c2ncn(CCC(CO)CF)c2[nH]1` (stereo unspecified) the logD [25] was -0.87.
With `CCCCCOc1ccc(O)cc1` the logP [26] was 3.26.
`Cc1c(I)c(=O)n(-c2ccccc2)n1C` showed a logP [27] of 1.27.
Work on `CN(C)C(=O)CNCc1ccccc1` yielded a logP [28] of 1.11.
Work on `Cc1c(O)c(=O)ccn1CCc1c[nH]cn1` yielded a logD [29] of -0.05.
Work on `FCCOC1CCC=CCCC1` (stereo unspecified) yielded a logD [30] of 1.68.
With `C=CCC1(CC(=C)Br)C(=O)NC(=O)N(C)C1=O` (stereo unspecified) the logD [31] was 1.78.
For `Cn1c(=O)[nH]c2ncn(CC(C)(C)C)c2c1=O`, the logD [32] was 0.6.
Compound `CN(C)C(=O)c1cc(N2CC2)c([N+](=O)[O-])cc1[N+](=O)[O-]` has a logD [33] of 0.63.
With `CCC(Oc1ccc(Cl)cc1C)C(=O)O` (stereo unspecified) the logP [34] was 3.47.
For `CCCCCCCCC(Cl)C(Cl)(Cl)Cl` (stereo unspecified), the logP [35] was 5.93.
`Cc1noc(NS(=O)(=O)c2ccc(N)cc2)c1C` showed a logP [36] of 0.83.
For `Clc1ccc(/N=N/c2ccc(Cl)c(Cl)c2)cc1Cl`, the logP [37] was 5.53.
Work on `Cc1[nH]cnc1CSCCNc1cc[nH]c(=O)n1` yielded a logP [38] of -0.4.
`CCNc1nc(NC(C)C(C)C)nc(SC)n1` (stereo unspecified) showed a logP [39] of 3.76.
With `COC(=O)/C=C/c1ccc(O)c(OC)c1` the logP [40] was 1.2.
`Clc1cc2c(oc3c(Cl)c(Cl)c(Cl)cc32)c(Cl)c1Cl` gave a logP [41] of 6.6.
For `Cc1c(CC(=O)O)sc2ccc(Cl)cc12`, the logD [42] was 3.12.
Compound `N#Cc1c[nH]cc1-c1cccc2c1OC(F)(F)O2` has a logP [43] of 2.6.
In the case of `C=C(C)C1CCC(C)(O)C1C` (stereo unspecified), the logP [44] is reported as 2.87.
For `CCCOC(=O)[C@@]1(C)[C@H](CO)CC=[N+]1[O-]`, the logD [45] was -0.82.
`CC(O)Cn1cnc2c1c(=O)n(C)c(=O)n2C` (stereo unspecified) gave a logD [46] of -0.77.
Compound `C=C(C)C(=O)OC1CCCCC1` has a logP [47] of 2.98.
Work on `C1COCCOCCOCCOCCO1` yielded a logP [48] of -0.48.
For `CC[C@@H]1C(=O)OC[C@@H]1Cc1cncn1C`, the logP [49] was 0.66.
Work on `COC(=O)N(C)SN(C)C(=O)O/N=C(\SC)C(=O)N(C)C` yielded a logP [50] of -0.07.
